15 compounds from EP3766544A1 (Centre Hospitalier Regional Universitaire de Lille, priority 2019, dated 2021) can be followed below.

Usually Kd stands for a measure of binding affinity in units of concentration. A lower Kd goes with higher affinity. The term IC50 denotes the concentration that inhibits the measured activity by half. The low end stands for greater potency, the high end for weaker potency.

T2 sequence (Q9NZQ7 19-238 limits assumed): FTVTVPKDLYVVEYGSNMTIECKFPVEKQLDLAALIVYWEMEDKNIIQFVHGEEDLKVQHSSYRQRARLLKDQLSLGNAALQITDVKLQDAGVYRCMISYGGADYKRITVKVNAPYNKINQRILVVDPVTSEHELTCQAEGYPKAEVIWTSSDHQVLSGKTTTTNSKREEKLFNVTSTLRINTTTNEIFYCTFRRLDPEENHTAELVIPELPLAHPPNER

In one assay the target is T1, hPD-L1-eGFP (Homo sapiens, UniProt Q9NZQ7).
T1 construct: expressed in transfected cells; host or cells: CHO-K1 (cell lysate used)
T1 sequence (Q9NZQ7 19-290): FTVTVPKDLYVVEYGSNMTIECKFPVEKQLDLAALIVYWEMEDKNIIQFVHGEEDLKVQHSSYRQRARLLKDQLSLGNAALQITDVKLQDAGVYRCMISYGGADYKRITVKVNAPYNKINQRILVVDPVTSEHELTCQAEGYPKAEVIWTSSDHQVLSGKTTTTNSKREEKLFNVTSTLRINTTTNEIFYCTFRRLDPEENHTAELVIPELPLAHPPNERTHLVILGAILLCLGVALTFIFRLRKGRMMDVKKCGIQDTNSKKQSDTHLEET
The assay is described as follows: Microscale thermophoresis (MST) PD-L1 binding assay. Particulars: CHO-K1 cell lysate, hPD-L1-eGFP 35 nM, PBS-T buffer (0.05% Tween 20). The source says:
The quantity of cells for this protocol can vary from 10 to 40 million. […] Different types of additives such as Tween 20, various MgCl2 concentrations, BSA have been tested to avoid sample aggregation and different types of capillaries have been investigated to reduce the adsorption within capillaries. Various buffers have also been tested and are listed in the related section. The fluorescence measurement is made using a small quantity of cell lysate within a capillary chosen among different available capillaries: standard, premium, hydrophilic or hydrophilic. The highest concentration of ligand must be at least 20 times higher than the expected dissociation constant of the interaction under study. However, the lowest concentration of ligand must be lower than the concentration of the fluorescent protein. An online tool created by NanoTemper® can be used and allows determining the range of ideal concentration. The concentration of the fluorescent protein can be determined using a GFP dosage kit (Abnova KA0911) or a calibration curve.
CHO-K1 cells were transfected with the Cell Line Nucleofector® Kit T, Program U-023 and the pcDNA 3.1 hygro plasmid expressing PD-1-eGFP. 2 µg of plasmid was transfected in one million CHO-K1 cells suspended in 100 µL Nucleofector solution. Cells were analyzed 48 hours post Nucleofection® by flow cytometry. Cells are put under the appropriate selective pressure which will only allow growth of cells containing the DNA insert. After three weeks of selective pressure, the multiparametric analysis of transfected CHO-K1 cells over-expressing mPD-1-eGFP allows defining sub-populations which can be separated from the global population. The population of cells strongly expressing eGFP is analyzed by flow cytometry and kept for MicroScale Thermophoresis analysis. The exact same protocol from transfection to cytometry analysis is lead on CHO-K1 cells expressing the hPD-L1-eGFP protein.
MST was used to establish the binding affinity between PD-L1-eGFP and Compounds. Cell lysate was diluted in PBS-T buffer (0.05% Tween 20) to a final concentration at which the fluorescent signals of the GFP proteins were similar and above the typical detection limit of the Monolith NT.115 instrument (NanoTemper Technologies). […] For the binding between hPD-L1-eGFP with compounds, several dilutions were made between 1mM to 1 nM to cover a wide concentration range. Ten microliters of cell lysate are added to 10 µL of each ligand solution. Nivolumab was taken as reference.
On the technique in general: MST reads how a fluorescent partner responds to local heating, with and without ligand.
`O=C1CC(C2CCCCCC2)=NN1c1ccc(Cl)cc1Cl` gave a Kd of 80000 ± 12000 nM.

`O=C1CC(c2ccccc2)=NN1c1ccc(Cl)cc1Cl`: the Kd is 14000 ± 3000 nM.

In turn, `COc1ccc(C2=NN(c3cc(Cl)ccc3Cl)C(=O)C2)cc1` had a dissociation constant Kd of 8000 ± 2000 nM.

Take `COc1ccc(C2=NN(c3ccccn3)C(=O)C2)cc1` [ALIPD19, 3-(4-Methoxyphenyl) -1-(pyridin-2-yl)-4,5-dihydro-1H-5-pyrazolone]: the Kd is 83 nM.

Consider `COc1ccc(C2=NN(c3ccc(OC)cc3)C(=O)C2)cc1` [ALIPD24, 1-(4-methoxyphenyl)-3-(4-methoxyphenyl)-4,5-dihydro-1H-5-pyrazolone], for which the Kd came out at 375 ± 43 nM.

The compound `O=C1CC(c2ccc(Cl)cc2Cl)=NN1c1ccccn1` [ALIPD26, 3-(2,4-Dichlorophenyl)-1-(pyridin-2-yl)-4,5-dihydro-1H-5-pyrazolone] returned a dissociation constant (Kd) of 110 ± 17 nM.

For `O=C1CC(C23CC4CC(CC(C4)C2)C3)=NN1c1cc(Cl)cc(Cl)c1` [ALIPD28, 3-(Adamantan-1-yl)-1-(3,5-dichlorophenyl)-4,5-dihydro-1H-5-pyrazolone], the Kd came out at 890 ± 75 nM.

The compound `O=C1CC(c2ccc([N+](=O)[O-])cc2)=NN1c1ccc(Cl)cc1Cl` [ALIPD33, 1-(2,4-Dichlorophenyl)-3-(4-nitrophenyl)-4,5-dihydro-1H-5-pyrazolone] gave a Kd of 72000 ± 17000 nM.

Regarding `COc1ccc(C2=NN(c3ccc(Cl)cc3Cl)C(=O)C2)cc1OC` [ALIPD52, 1-(2,4-Dichlorophenyl)-3-(3,4-dimethoxyphenyl)-4,5-dihydro-1H-5-pyrazolone], the equilibrium dissociation constant (Kd) was determined as 212 ± 23 nM.

Compound `O=C1CC(c2cccc(C(F)(F)F)c2)=NN1c1ccccn1` [ALIPD58, 1-(2-pyridyl)-3-[3-(trifluoromethyl)phenyl]-4,5-dihydro-1H-5-pyrazolone] showed a dissociation constant (Kd) of 1200 nM.

`O=C1CC(c2ccc(Cl)cc2)=NN1c1ccccn1` [ALIPD59, 3-(4-chlorophenyl)-1-(2-pyridyl)-4,5-dihydro-1H-5-pyrazolone] returned a Kd of 27000 ± 5000 nM.

`COc1ccccc1C1=NN(c2ccccn2)C(=O)C1` [ALIPD60, 3-(2-methoxyphenyl)-1-(2-pyridyl)-4,5-dihydro-1H-5-pyrazolone] returned a Kd of 23 nM.

Regarding `COc1ccc(C2=NN(c3cc(Cl)cc(Cl)c3)C(=O)C2)cc1` [ALIPX02, 1-(3,5-Dichlorophenyl)-3-(4-methoxyphenyl)-4,5-dihydro-1H-5-pyrazolone], the equilibrium dissociation constant (Kd) amounted to 18000 ± 3000 nM.

`COc1ccc(C2=NN(c3ccc(Cl)cc3Cl)C(=O)C2)cc1` [ALIPX05, 1-(2,4-Dichlorophenyl)-3-(4-methoxyphenyl)-4,5-dihydro-1H-5-pyrazolone] registered a Kd of 68000 ± 7000 nM.

In turn, `O=C1CC(C23CC4CC(CC(C4)C2)C3)=NN1c1ccccn1` [ALIPX57, 3-(Adamantan-1-yl)-1-(pyridin-2-yl)-4,5-dihydro-1H-5-pyrazolone] registered a Kd of 340 ± 27 nM.

The next assay concerns the target T2, interaction between PD-1 and PD-L1 (Homo sapiens, UniProt Q9NZQ7).
T2 construct: expressed in transfected cells; host or cells: CHO-K1 co-transfected with PD-1-YFP and SHP-2-CFP
Kind of assay: FRET assay (PD-1-YFP / SHP-2-CFP in CHO-K1 cells, activation with PD-L1). The format is cell-based. The following applies: co-transfected PD-1-SHP2 CHO-K1 cells, after addition of PD-L1 (10 µM). The source says:
Energy transfer between fluorescent molecules (FRET) is a technique that allows visualizing interactions between 2 fluorescent molecules. A fluorescent molecule, called "donor", will transfer its energy, once excited, to another fluorescent molecule called "acceptor". The fluorescence of the donor decreases while the acceptor's one increases (see Figure 1).
A model was developed using CHO-K1 cells involving overexpression of proteins of interest. It involves the expression of a PD-1-YFP fluorescent protein and a second fluorescent protein SHP-2-CFP (phosphatase recruited during the interaction between PD-1 and PD-L1).
A Spectramax i3 is configured according to the selected fluorochromes with their excitation and emission spectra. Endpoint reading is performed, at the center of the well; the reading time is 2 minutes for a 96-well plate.
For this test, a 96-well flat-bottomed white plate is required. All mixes introduced into the plate are made of triplicate. The negative control is provided by the CHO transfected by the void plasmid, the positive control is provided by CHO transfected with a plasmid containing the YFP-CFP fusion protein making it possible to mimic the FRET phenomenon. […] It is also necessary to remove the background noise, that is to say the FRET without activation with PD-L1. […] Nivolumab was taken as positive control of interaction's inhibitions.
Compound `O=C1CC(C2CCCCCC2)=NN1c1ccc(Cl)cc1Cl` yielded a concentration for half-maximal inhibition (IC50) of 67000 ± 9000 nM.

Regarding `O=C1CC(c2ccccc2)=NN1c1ccc(Cl)cc1Cl`, the IC50 stood at 9000 ± 5000 nM.

Consider `COc1ccc(C2=NN(c3cc(Cl)ccc3Cl)C(=O)C2)cc1`, for which the half-maximal inhibitory concentration (IC50) was found to be 12000 ± 3000 nM.

The compound `COc1ccc(C2=NN(c3ccccn3)C(=O)C2)cc1` [ALIPD19, 3-(4-Methoxyphenyl) -1-(pyridin-2-yl)-4,5-dihydro-1H-5-pyrazolone] returned a concentration for half-maximal inhibition (IC50) of 17 nM.

`COc1ccc(C2=NN(c3ccc(OC)cc3)C(=O)C2)cc1` [ALIPD24, 1-(4-methoxyphenyl)-3-(4-methoxyphenyl)-4,5-dihydro-1H-5-pyrazolone] yielded an IC50 of 230 ± 35 nM.

`O=C1CC(c2ccc(Cl)cc2Cl)=NN1c1ccccn1` [ALIPD26, 3-(2,4-Dichlorophenyl)-1-(pyridin-2-yl)-4,5-dihydro-1H-5-pyrazolone]: inhibition was half-maximal at 98 ± 12 nM (IC50).

The compound `O=C1CC(C23CC4CC(CC(C4)C2)C3)=NN1c1cc(Cl)cc(Cl)c1` [ALIPD28, 3-(Adamantan-1-yl)-1-(3,5-dichlorophenyl)-4,5-dihydro-1H-5-pyrazolone] had an IC50 of 785 ± 87 nM.

`O=C1CC(c2ccc([N+](=O)[O-])cc2)=NN1c1ccc(Cl)cc1Cl` [ALIPD33, 1-(2,4-Dichlorophenyl)-3-(4-nitrophenyl)-4,5-dihydro-1H-5-pyrazolone] displayed an IC50 of 43000 ± 6000 nM.

`COc1ccc(C2=NN(c3ccc(Cl)cc3Cl)C(=O)C2)cc1OC` [ALIPD52, 1-(2,4-Dichlorophenyl)-3-(3,4-dimethoxyphenyl)-4,5-dihydro-1H-5-pyrazolone]: the IC50 was 196 ± 17 nM.

For `O=C1CC(c2cccc(C(F)(F)F)c2)=NN1c1ccccn1` [ALIPD58, 1-(2-pyridyl)-3-[3-(trifluoromethyl)phenyl]-4,5-dihydro-1H-5-pyrazolone], half-maximal inhibition (IC50) was put at 1100 nM.

Consider `O=C1CC(c2ccc(Cl)cc2)=NN1c1ccccn1` [ALIPD59, 3-(4-chlorophenyl)-1-(2-pyridyl)-4,5-dihydro-1H-5-pyrazolone], for which the IC50 is 33000 ± 7000 nM.

Turning to `COc1ccccc1C1=NN(c2ccccn2)C(=O)C1` [ALIPD60, 3-(2-methoxyphenyl)-1-(2-pyridyl)-4,5-dihydro-1H-5-pyrazolone], the half-maximal inhibitory concentration (IC50) was found to be 7 nM.

As for `COc1ccc(C2=NN(c3cc(Cl)cc(Cl)c3)C(=O)C2)cc1` [ALIPX02, 1-(3,5-Dichlorophenyl)-3-(4-methoxyphenyl)-4,5-dihydro-1H-5-pyrazolone], half-maximal inhibition (IC50) was put at 15000 ± 5000 nM.

`COc1ccc(C2=NN(c3ccc(Cl)cc3Cl)C(=O)C2)cc1` [ALIPX05, 1-(2,4-Dichlorophenyl)-3-(4-methoxyphenyl)-4,5-dihydro-1H-5-pyrazolone] showed a concentration for half-maximal inhibition (IC50) of 51000 ± 3000 nM.

`O=C1CC(C23CC4CC(CC(C4)C2)C3)=NN1c1ccccn1` [ALIPX57, 3-(Adamantan-1-yl)-1-(pyridin-2-yl)-4,5-dihydro-1H-5-pyrazolone] showed a half-inhibitory concentration (IC50) of 4 ± 2 nM.

Tested on in a further assay: not listed separately
The assay is described as follows: In vitro spread test (CFSE CellTrace cell proliferation, flow cytometry). Particulars: IC50 of proliferation, flow cytometry D0 to D3. The format is cell-based. The text has this: The CellTrace™ Cell Proliferation Kits provide versatile and well-retained cell tracing reagents in a convenient and easyto-use form. Each kit contains a CellTrace™ reagent in single-use vials to permit small scale experiments without preparing excess quantities of stock solution. The CellTrace™ reagents readily diffuse into cells and bind covalently to intracellular amines, resulting in stable, well-retained fluorescent staining that can be fixed with aldehyde fixatives. Excess unconjugated reagent passively diffuses to the extracellular medium, where it can be quenched with complete media and washed away. The kit is supplied by ThermoFisher Scientific.
• 1. Number of days on which the manipulation is done: 3 (from D0 to D3: 4 passages in cytometry) • 2. Volume of cell suspension needed: 2.5ml (0.5ml / day) • 3. Number of cells needed: 2.5mlx0.5M / ml = 1.25M per cell line. • 4. Number the cells and check their viability. • 5. Prepare the desired number of cells. • 6. Centrifuge, resuspend at a 1M/mL concentration in PBS (the probe binds to the proteins of the medium) • 7. Add 0.5µM of CellTrace (dilute 1/10 of the stock solution, add 1 / 1000th in the PBS-cell mix: take 1µl of probe at the main concentration, add 9µL of PBS) • 8. Incubate for 20 minutes at 37 ° C in the dark. • 9. Add 5 volumes of medium to capture the excess of probe (1.2x5 = 6ml) • 10. Incubate for 5 minutes at 37 ° C. • 11. Centrifuge, resuspend the cells at the desired concentration of 0.5M / ml in preheated medium. Plate 24 wells. • 12. Establish the J0 at least 5h after marking. • 13. Flow cytometry is then performed to evaluate cell division and to determine an IC50 of proliferation using Graphpad.
(In general: A flow cytometer gives signals particle by particle.)
`COc1ccc(C2=NN(c3ccccn3)C(=O)C2)cc1` [ALIPD19, 3-(4-Methoxyphenyl) -1-(pyridin-2-yl)-4,5-dihydro-1H-5-pyrazolone]: half-maximal inhibition (IC50) was put at 75 nM.

As for `COc1ccc(C2=NN(c3ccc(OC)cc3)C(=O)C2)cc1` [ALIPD24, 1-(4-methoxyphenyl)-3-(4-methoxyphenyl)-4,5-dihydro-1H-5-pyrazolone], the “In vitro spread test” value is on record as “No effect”.

In the case of `O=C1CC(C23CC4CC(CC(C4)C2)C3)=NN1c1ccccn1` [ALIPX57, 3-(Adamantan-1-yl)-1-(pyridin-2-yl)-4,5-dihydro-1H-5-pyrazolone], the 50% inhibitory concentration (IC50) amounted to 192 nM.
